Assay results reported in US20050227989A1, “Polycyclic thiazoles as potassium ion channel modulators” (ICAgen, Inc., priority 2004, published 2005).
pIC50: −log10 of the molar value.

target: hSK2 (Homo sapiens, UniProt Q9H2S1); test: 86Rb+ efflux assay for compound activity towards hSK channels; format: cell-based; conditions: 86Rb+ efflux stimulated with calcium ionophore; drug 0.01 to 30 μM in EBSS; read-out: hSK2 Inhibitory Activity

pIC50 | Molecule
4.52 to 6.00 | CC(C)c1ccc(Nc2nc(-c3cnccn3)cs2)nc1 [(5-Isopropyl-pyridin-2-yl)-(4-pyrazin-2-yl-thiazol-2-yl)-amine]
4.52 to 6.00 | CSc1sc(Nc2ccccn2)nc1-c1ccccn1 [(5-Methylsulfanyl-4-pyridin-2-yl-thiazol-2-yl)-pyridin-2-yl-amine]
4.52 to 6.00 | Cc1ccnc(Nc2nc(-c3c(C)nc4ncccn34)cs2)c1 [[4-(2-Methyl-imidazo[1,2-a]pyrimidin-3-yl)-thiazol-2-yl]-(4-methyl-pyridin-2-yl)-amine]
4.52 to 6.00 | CC(C)c1ccc(Nc2nc(-c3nccs3)cs2)nc1 [[2,4′]Bithiazolyl-2′-yl-(5-isopropyl-pyridin-2-yl)-amine]
4.52 to 6.00 | CN1CCN(c2ccc(Nc3nc(-c4nccs4)cs3)nc2)CC1 [[2,4′]Bithiazolyl-2′-yl-[5-(4-methyl-piperazin-1-yl)-pyridin-2-yl]-amine]
7.00 to 7.52 | Cc1ccnc(Nc2nc(-c3cc(C)ccn3)cs2)c1 [(4-Methyl-pyridin-2-yl)-[4-(4-methyl-pyridin-2-yl)-thiazol-2-yl]-amine]
4.52 to 6.00 | CN1CCN(c2ccc(Nc3nc(-c4cnccn4)cs3)nc2)C(=O)C1 [4-Methyl-1-[6-(4-pyrazin-2-yl-thiazol-2-ylamino)-pyridin-3-yl]-piperazin-2-one]
4.52 to 6.00 | FC(F)(F)c1ccc(Nc2nc(-c3ccccn3)cs2)nc1 [(4-Pyridin-2-yl-thiazol-2-yl)-(5-trifluoromethyl-pyridin-2-yl)-amine]
4.52 to 6.00 | Cc1cc(C)nc(Nc2nc(-c3ccccn3)cs2)c1 [(4,6-Dimethyl-pyridin-2-yl)-(4-pyridin-2-yl-thiazol-2-yl)-amine]
4.52 to 6.00 | Cc1ccnc(Nc2nc(-c3c(C)nc4ccccn34)cs2)c1 [[4-(2-Methyl-imidazo[1,2-a]pyridin-3-yl)-thiazol-2-yl]-(4-methyl-pyridin-2-yl)-amine]
6.00 to 7.00 | COc1ccc(Nc2nc(-c3nccs3)cs2)nc1 [[2,4′]Bithiazolyl-2′-yl-(5-methoxy-pyridin-2-yl)-amine]
6.00 to 7.00 | Cc1cc(Nc2nc(-c3ccccn3)cs2)ncc1I [(5-Iodo-4-methyl-pyridin-2-yl)-(4-pyridin-2-yl-thiazol-2-yl)-amine]
7.00 to 7.52 | Cc1ccc(Nc2nc(-c3cnccn3)cs2)nc1 [(5-Methyl-pyridin-2-yl)-(4-pyrazin-2-yl-thiazol-2-yl)-amine]
4.52 to 6.00 | C=C(C)c1ccc(Nc2nc(-c3nccs3)cs2)nc1 [[2,4′]Bithiazolyl-2′-yl-(5-isopropenyl-pyridin-2-yl)-amine]
4.52 to 6.00 | Cc1ccnc(Nc2nc(-c3c(C)nc4cc(C)ccn34)cs2)c1 [[4-(2,7-Dimethyl-imidazo[1,2-a]pyridin-3-yl)-thiazol-2-yl]-(4-methyl-pyridin-2-yl)-amine]
4.52 to 6.00 | c1cncc(-c2ccc(Nc3nc(-c4nccs4)cs3)nc2)c1 [[3,3′]Bipyridinyl-6-yl-[2,4′]bithiazolyl-2′-yl-amine]
7.00 to 7.52 | Nc1ccc(Nc2nc(-c3nccs3)cs2)nc1 [N^2-[2,4′]Bithiazolyl-2′-yl-pyridine-2,5-diamine]
4.52 to 6.00 | O=[N+]([O-])c1ccc(Nc2nc(-c3nccs3)cs2)nc1 [[2,4′]Bithiazolyl-2′-yl-(5-nitro-pyridin-2-yl)-amine]
4.52 to 6.00 | Brc1ccc(Nc2nc(-c3nccs3)cs2)nc1 [[2,4′]Bithiazolyl-2′-yl-(5-bromo-pyridin-2-yl)-amine]
4.52 to 6.00 | COc1sc(Nc2ccccn2)nc1-c1ccccn1 [(5-Methoxy-4-pyridin-2-yl-thiazol-2-yl)-pyridin-2-yl-amine]
7.00 to 7.52 | O=C1CCCN1c1ccc(Nc2nc(-c3nccs3)cs2)nc1 [1-[6-([2,4′]Bithiazolyl-2′-ylamino)-pyridin-3-yl]-pyrrolidin-2-one]
6.00 to 7.00 | c1ccc(-c2csc(Nc3nc4ccccc4[nH]3)n2)nc1 [(1H-Benzoimidazol-2-yl)-(4-pyridin-2-yl-thiazol-2-yl)-amine]
7.00 to 7.52 | c1ccc(-c2csc(Nc3ccc(N4CCOCC4)cn3)n2)nc1 [(5-Morpholin-4-yl-pyridin-2-yl)-(4-pyridin-2-yl-thiazol-2-yl)-amine]
7.00 to 7.52 | Cc1ccnc(Nc2nc(-c3cnccn3)cs2)c1 [(4-Methyl-pyridin-2-yl)-(4-pyrazin-2-yl-thiazol-2-yl)-amine]
4.52 to 6.00 | Clc1ccc(Nc2nc(-c3nccs3)cs2)nc1 [[2,4′]Bithiazolyl-2′-yl-(5-chloro-pyridin-2-yl)-amine]

pIC50 | Molecule
6.00 to 7.00 | C=C(C)c1ccc(Nc2nc(-c3cnccn3)cs2)nc1 [(5-Isopropenyl-pyridin-2-yl)-(4-pyrazin-2-yl-thiazol-2-yl)-amine]
> 7.52 | O=C1CCCN1c1ccc(Nc2nc(-c3cnccn3)cs2)nc1 [1-[6-(4-Pyrazin-2-yl-thiazol-2-ylamino)-pyridin-3-yl]-pyrrolidin-2-one]
> 7.52 | [(4-Methyl-pyridin-2-yl)-(4-pyridin-2-yl-thiazol-2-yl)-amine]2 Zn(II) nHCl Complex
> 7.52 | Cc1sc(Nc2ccccn2)nc1-c1ccccn1 [(5-Methyl-4-pyridin-2-yl-thiazol-2-yl)-pyridin-2-yl-amine]
6.00 to 7.00 | Cc1cc(I)cnc1Nc1nc(-c2ccccn2)cs1 [(5-Iodo-3-methyl-pyridin-2-yl)-(4-pyridin-2-yl-thiazol-2-yl)-amine]
4.52 to 6.00 | c1ccc(-c2csc(Nc3nccs3)n2)nc1 [(4-Pyridin-2-yl-thiazol-2-yl)-thiazol-2-yl-amine]
> 7.52 | c1ccc(Nc2nc(-c3ccccn3)cs2)nc1 [Pyridin-2-yl-(4-pyridin-2-yl-thiazol-2-yl)-amine]
4.52 to 6.00 | Brc1sc(Nc2ccccn2)nc1-c1ccccn1 [(5-Bromo-4-pyridin-2-yl-thiazol-2-yl)-pyridin-2-yl-amine]
4.52 to 6.00 | Brc1ccc(Nc2nc(-c3ccccn3)cs2)nc1 [(5-Bromo-pyridin-2-yl)-(4-pyridin-2-yl-thiazol-2-yl)-amine]
4.52 to 6.00 | c1csc(-c2ccc(Nc3nc(-c4nccs4)cs3)nc2)c1 [[2,4′]Bithiazolyl-2′-yl-(5-thiophen-2-yl-pyridin-2-yl)-amine]
4.52 to 6.00 | c1ccc(Nc2nc(-c3cccs3)cs2)nc1 [Pyridin-2-yl-(4-thiophen-2-yl-thiazol-2-yl)-amine]
6.00 to 7.00 | c1csc(-c2csc(Nc3ccc(N4CCOCC4)cn3)n2)n1 [[2,4′]Bithiazolyl-2′-yl-(5-morpholin-4-yl-pyridin-2-yl)-amine]
6.00 to 7.00 | Cc1ccnc(Nc2nc(-c3ccccn3)c(Cl)s2)c1 [(5-Chloro-4-pyridin-2-yl-thiazol-2-yl)-(4-methyl-pyridin-2-yl)-amine]
4.52 to 6.00 | CN1CCN(c2ccc(Nc3nc(-c4ccccn4)cs3)nc2)C(=O)C1 [4-Methyl-1-[6-(4-pyridin-2-yl-thiazol-2-ylamino)-pyridin-3-yl]-piperazin-2-one]
4.52 to 6.00 | c1ccc(-c2ccc(Nc3nc(-c4ccccn4)cs3)nc2)cc1 [(5-Phenyl-pyridin-2-yl)-(4-pyridin-2-yl-thiazol-2-yl)-amine]
4.52 to 6.00 | CCCCCCc1ccc(Nc2nc(-c3ccccn3)cs2)nc1 [(5-Hexyl-pyridin-2-yl)-(4-pyridin-2-yl-thiazol-2-yl)-amine]
6.00 to 7.00 | Cc1ccnc(Nc2nc(-c3nccs3)cs2)c1 [[2,4′]Bithiazolyl-2′-yl-(4-methyl-pyridin-2-yl)-amine]
7.00 to 7.52 | CC1CCN(c2ccc(Nc3nc(-c4ccccn4)cs3)nc2)CC1 [(4-Methyl-3,4,5,6-tetrahydro-2H-[1,3′]bipyridinyl-6′-yl)-(4-pyridin-2-yl-thiazol-2-yl)-amine]
4.52 to 6.00 | Fc1ccc(Nc2nc(-c3ccccn3)cs2)nc1 [(5-Fluoro-pyridin-2-yl)-(4-pyridin-2-yl-thiazol-2-yl)-amine]
4.52 to 6.00 | Cc1cnc(Nc2nc(-c3ccccn3)cs2)c(Br)c1 [(3-Bromo-5-methyl-pyridin-2-yl)-(4-pyridin-2-yl-thiazol-2-yl)-amine]
> 7.52 | [(4-Methyl-pyridin-2-yl)-(4-pyridin-2-yl-thiazol-2-yl)-amine]2 Fe(II) nH2ClO4 Complex
7.00 to 7.52 | CC(C)c1ccc(Nc2nc(-c3ccccn3)cs2)nc1 [(5-Isopropyl-pyridin-2-yl)-(4-pyridin-2-yl-thiazol-2-yl)-amine]
4.52 to 6.00 | CC(C)(C)c1ccc(Nc2nc(-c3ccccn3)cs2)nc1 [(5-tert-Butyl-pyridin-2-yl)-(4-pyridin-2-yl-thiazol-2-yl)-amine]
4.52 to 6.00 | c1ccc(Nc2csc(Nc3ccccn3)n2)nc1 [N^2,N^4-Di-pyridin-2-yl-thiazole-2,4-diamine]
4.52 to 6.00 | COC(=O)c1ccc(Nc2nc(-c3ccccn3)cs2)nc1 [6-(4-Pyridin-2-yl-thiazol-2-ylamino)-nicotinic acid methyl ester]

same assay, conditions: read-out: hSK2 Inhibitory Activity

Molecule | pIC50
c1ccc(-c2csc(Nc3ncccn3)n2)nc1 [(4-Pyridin-2-yl-thiazol-2-yl)-pyrimidin-2-yl-amine] | 4.52 to 6.00

target: SK2 subtype channels (Rattus norvegicus, UniProt P70604); test: not given; conditions: patch clamp; cited from earlier work

Molecule | block of SK2 channel currents
Nc1c2c(nc3ccccc13)CCCC2 [tacrine] | block SK2 channel currents with micromolar affinity
NC(=O)N1c2ccccc2C=Cc2ccccc21 [carbamazepine] | block SK2 channel currents with micromolar affinity

target: T1, recombinant human SK4 (hIK1 or hKCa4) channels (Homo sapiens, UniProt O15554+P0DP23); test: not given; conditions: applied to the inside of SK4 channel-expressing membrane patches; cited from earlier work
T1 construct: host or cells: HEK 293

Molecule | activation of SK4 channels
[Co+2] [cobalt] | did not activate
[Sr+2] [strontium] | activated SK4 channels in a concentration-dependent manner
[Cd] [cadmium] | activated SK4 channels in a concentration-dependent manner
[Ca+2] [calcium] | activated SK4 channels in a concentration-dependent manner
[Pb+2] [lead] | activated SK4 channels in a concentration-dependent manner
[Mg+2] [magnesium] | did not activate
[Fe] [iron] | did not activate
[Zn+2] [zinc] | did not activate
[Ba+2] [Barium] | activated SK4 channels in a concentration-dependent manner
